Twelve compounds from patent US20210230131A1, “POLYAMINO BIARYL COMPOUNDS AND THEIR USE” (INSERM (INSTITUT NATIONAL DE LA SANTÉ ET DE LA RECHERCHE …, priority 2018, published 2021) can be followed below.

The test system of test [1] is AICD. Nature of the test: AICD by Western blot in SY5Y-APP695WT cells. Format: cell-based, human. The conditions noted are these: AICD increase compared to chloroquine ([AICD]compound/[AICD]CQ) at 3 μM; mean of at least three experiments. The source says:
(§1) Antibodies. Primary antibodies used in this study for western-blot analysis included a homemade rabbit antiserum against the last 17 amino acids of human APP protein sequence, named APP-Cter-C17 (1/5000 in TBS-M). Anti-β-actin (1/10 000 in TBS-M) was obtained from Sigma. Anti-LC3B (1/2000 in TBS-BSA) and anti-p62/SQSTM1 (1/2000 in TBS-M) antibodies were purchased from Cell Signaling Technology. Secondary antibodies (peroxidase-labeled goat anti-rabbit IgG, 1/5000 or peroxidase-labeled horse anti-mouse IgG, 1/50000 in TBS-T) were obtained from Vector Laboratories.
(§2) Cell culture and treatment. The human neuroblastoma cell line SY5Y-APP^695WT was maintained in Dulbecco's modified Eagle medium (DMEM, high glucose, pyruvate—GIBCO by Life Technologies) supplemented with 10% foetal bovine serum, 2 mM L-glutamine, 1 mM non-essential amino acids and penicillin/streptomycin (GIBCO by Life Technologies) at 37° C. in a 5% CO2 humidified incubator. SY5Y-APP^695WT cells were maintained in 75 cm^2 culture flasks (Falcon) with supplemented DMEM medium until they reached 80% of confluence 24 h before treatment.
(§3) For drug treatment, cells were plated at a rate of 5·10^5 cells per well into 12-well plates (Falcon) and cultured with 1 mL supplemented DMEM cell medium for 24 h before drug exposure. The following day, cell medium was replaced with fresh medium containing drugs diluted at the indicated concentrations. Cells were treated for 24 h. At the end of treatments, the cell medium was collected and kept at −80° C. until use for dosage. Then, cells were rinsed once with PBS and extracted in 100 μL of Laemmli buffer (10 mM Tris, 20% glycerol and 2% Sodium dodecyl sulfate) using a cell-scraper. The cell lysate was further sonicated (30 pulses of 0.5 s, 60 Hz) for 5 min. Total protein concentration was determined using the Pierce BCA Protein Assay Kit (Thermo scientific) according to the manufacturer's instructions. Samples were stored at −80° C. until analysis.
(§4) Western Blot Analysis. Cell protein lysates were prepared for western-blot analysis by diluting the sample with 1 volume of NuPAGE® lithium dodecyl sulfate (LDS) 2× sample buffer supplemented with 20% NuPAGE® sample reducing agents (Invitrogen). Samples were heat 10 min at 100° C. 10 μg of total proteins per well were loaded onto a precast 4-12% Criterion XT Bis-Tris polyacrylamide gel (Bio-Rad) and electrophoresis was achieved after applying a tension of 150 V during 90 min using a Criterion electrophoresis Cell with the NuPAGE® MOPS SDS running buffer (1×). Proteins were transferred to a nitrocellulose membrane of […] pore size (G&E Healthcare) using the Criterion blotting system and applying a tension of 100 V for 45 min. To resolve proteins of low molecular weights such as carboxy-terminal fragments of APP, 12% Criterion XT Bis-Tris polyacrylamide gels (Bio-Rad) were used and electrophoresis was performed during 70 min at 150 V in a NuPAGE® MES SDS running buffer (1×). Proteins were transferred to a nitrocellulose membrane of 0.2 μm pore size (G&E Healthcare) at 100 V for 40 min. Molecular weights calibration was achieved using molecular weight markers (Novex and Magic Marks, Life Technologies). Protein transfer and quality were determined by a reversible Ponceau Red coloration (0.2% Xylidine Ponceau Red and 3% Trichloroacetic acid). Membranes were then blocked in 25 mM Tris-HCl pH 8.0, 150 mM NaCl, 0.1% Tween-20 (v/v) (TBS-T) and 5% (w/v) of skimmed milk (TBS-M) or 5% (w/v) of bovine serum albumin (TBS-BSA) depending on the antibody during 1 h. Membrane was rinsed three-times 10 min in TBS-T before incubation with the primary antibody overnight at 4° C. Membrane was rinsed 3 times 10 min with TBS-T and then incubated with the secondary antibody for 45 min at room temperature (RT). […] Quantifications of protein expression levels were performed with ImageJ Software (NIH). […]
In general terms: A western blot detects proteins with antibodies after separation by electrophoresis.

Test [2] relates to CTFα. Nature of the test: APP carboxy-terminal fragment αCTF by Western blot in SY5Y-APP695WT cells. The test is classed as cell-based, human. The following applies: CTFα increase compared to chloroquine ([CTF]compound/[CTF]CQ) at 3 μM; mean of at least three experiments.
Description: as §1, §2, §3, §4

Test [3] concerns Aβ1-42 peptide secretion. Nature of the test: Quantification of secreted Aβ1-42 by ELISA in SY5Y-APP695WT cells. Format: cell-based. The following applies: Homo sapiens; concentration inhibiting 50% of Aβ1-42 peptide secretion in SY5Y cells; 24 h treatment; mean ± SD of at least two experiments in triplicate. How it is done:
(§5) Cell culture and treatment. The human neuroblastoma cell line […] was maintained in Dulbecco's modified Eagle medium (DMEM, high glucose, pyruvate-GIBCO by Life Technologies) supplemented with 10% foetal bovine serum, 2 mM L-glutamine, 1 mM non-essential amino acids and penicillin/streptomycin (GIBCO by Life Technologies) at 37° C. in a 5% CO2 humidified incubator. […] cells were maintained in 75 cm^2 culture flasks (Falcon) with supplemented DMEM medium until they reached 80% of confluence 24 h before treatment. For compounds treatment, a 10 mM stock solution was diluted in freshly supplemented DMEM medium to obtain the precise final concentration of drug. Bafilomycin A1 (BafA1), the vacuolar […] type H+ ATPase inhibitor, was purchased from Merck Millipore and was used at a final dilution of 100 nM. For drug treatment, cells were plated at a rate of 5·10^5 cells per well into 12-well plates (Falcon) and cultured with 1 mL supplemented DMEM cell medium for 24 h before drug exposure. The following day, cell medium was replaced with fresh medium containing drugs diluted at the indicated concentrations. Cells were treated for 24 h. At the end of treatments, the cell medium was collected and kept at -80° C. until use for dosage. Then, cells were rinsed once with PBS and extracted in 100 μL of Laemmli buffer (10 mM Tris, 20% glycerol and 2% Sodium dodecyl sulfate) using a cell-scraper. The cell lysate was further sonicated (30 pulses of 0.5 s, 60 Hz) for 5 min. Total protein concentration was determined using the Pierce BCA Protein Assay Kit (Thermo scientific) according to the manufacturer's instructions. Samples were stored at -80° C. until analysis. Quantification of secreted Aβ1-40/1-42 and sAPPα/sAPPβ. Conditioned media of […] collected at the end of treatments were centrifuged at 1000 g for 5 min to eliminate cells debris. Aβ1-40 and Aβ1-42 peptide concentrations in […] were determined using amyloid-beta 40 and 42 Human ELISA kits (Invitrogen) according to the manufacturer's instructions after 1:10 and 1:2 dilutions of supernatants in ELISA buffer, respectively. sAPPα and sAPPβ concentrations in ng/mL were determined using the sAPPα/sAPPβ kit (Meso Scale Diagnostics, MSD®) according to the manufacturer's instructions. Compounds of the invention (compounds 24-37, 41, 44 and 51-58) were evaluated for their ability to modulate APP processing on SY5Y human neuroblastoma cell line stably expressing the neuronal isoform of human wild-type APP695 (SYSY-APPwt). Aβ levels (Aβ1-40 and Aβ1-42) after treatment with reference and tested compounds were measured by ELISA (Table 2). […] APP carboxy-terminal fragments (αCTFs and AICD) were measured by Western blot and quantified. The effect of reference and tested compounds on αCTFs and AICD are expressed as the intensity of corresponding western-blot bands resulting from the secretase cleavages.

Test [4] concerns Aβ1-40 peptide secretion. Nature of the test: Quantification of secreted Aβ1-40 by ELISA in SY5Y-APP695WT cells. The following applies: Homo sapiens; concentration inhibiting 50% of Aβ1-40 peptide secretion in SY5Y cells; 24 h treatment; mean ± SD of at least two experiments in triplicate. Format: cell-based. As to the method:
as §5
On the technique in general: An ELISA detects its analyte on a solid surface through an enzyme-linked reagent.

Take `CCN(CC)CCCC(C)Nc1ccnc2cc(Cl)ccc12` (centres unmarked) [CQ, chloroquine, reference compound]: the “AICD vs CQ (3 μM)” value in test [1] was determined as 1. In test [2], the “CTFα vs CQ (3 μM)” value is 1.
As to `c1cc(-c2ccc(NCCCN3CCCCC3)c(OCCN3CCCCC3)c2)ccc1CN1CCCCC1` [Compound 24, 2-[2-(Piperidin-1-yl)ethoxy]-N-[3-(piperidin-1-yl)propyl]-4-[4-(piperidin-1-ylmethyl)phenyl]aniline], the values for the half-maximal inhibitory concentration (IC50) in test [3] and in test [4] were 3300 ± 2100 nM and 2100 ± 600 nM, respectively. Also, in test [1], the “AICD vs CQ (3 μM)” value stood at 2.5. For the same compound, the “CTFα vs CQ (3 μM)” value in test [2] turned out to be 2.6.
Taken in the same sequence, the figures for `CN(C)Cc1ccc(-c2ccc(NCCCN3CCCCC3)c(OCCN3CCCCC3)c2)cc1` [Compound 25, 4-(4-[(Dimethylamino)methyl]phenyl)-2-[2-(piperidin-1-yl)ethoxy]-N-[3-(piperidin-1-yl)propyl]aniline] were 1700 ± 400 nM, 1500 ± 100 nM, 2.5 and 2.1.
With `c1cc(CN2CCCCC2)cc(-c2ccc(NCCCN3CCCCC3)c(OCCN3CCCCC3)c2)c1` [Compound 26, 2-[2-(1-piperidyl)ethoxy]-4-[3-(1-piperidylmethyl)phenyl]-N-[3-(1-piperidyl)propyl]aniline], the IC50 – broadly, the concentration needed to halve the response being measured – in test [3] worked out at 4800 ± 600 nM; in test [4], 4300 ± 700 nM. Besides, the “AICD vs CQ (3 μM)” value in test [1] was found to be 2.6. The “CTFα vs CQ (3 μM)” value in test [2] is on record as 3.3.
For `c1ccc(-c2ccc(NCCCN3CCCCC3)c(OCCN3CCCCC3)c2)c(CN2CCCCC2)c1` [Compound 27, 2-[2-(Piperidin-1-yl)ethoxy]-N-[3-(piperidin-1-yl)propyl]-4-[2-(piperidin-1-ylmethyl)phenyl]aniline], the figures for the half-maximal inhibitory concentration (IC50) in test [3] and in test [4] were 4100 ± 1300 nM and 2600 ± 100 nM, respectively. Besides, the “AICD vs CQ (3 μM)” value in test [1] is given as 2.7. Also, in test [2], the “CTFα vs CQ (3 μM)” value stood at 4.3.
On to `c1ccc(-c2ccc(NCCCN3CCCCC3)c(OCCN3CCCCC3)c2)c(CN2CCOCC2)c1` [Compound 28, 4-[2-(Morpholin-4-ylmethyl)phenyl]-2-[2-(piperidin-1-yl)ethoxy]-N-[3-(piperidin-1-yl)propyl]aniline], for which the results for the half-inhibitory concentration (IC50) in test [3] and in test [4] were 4200 ± 1500 nM and 2800 ± 1200 nM, respectively. For the same compound, the “AICD vs CQ (3 μM)” value in test [1] worked out at 1.7. Further, the “CTFα vs CQ (3 μM)” value in test [2] worked out at 3.1.
`CN1CCN(Cc2ccccc2-c2ccc(NCCCN3CCCCC3)c(OCCN3CCCCC3)c2)CC1` [Compound 29, 4-(2-[(4-Methylpiperazin-1-yl)methyl]phenyl)-2-[2-(piperidin-1-yl)ethoxy]-N-[3-(piperidin-1-yl)propyl]aniline]: the IC50 in test [3] is 2700 ± 800 nM; in test [4], 2600 ± 200 nM. Further, in test [1], the “AICD vs CQ (3 μM)” value was found to be 3.7. For the same compound, the “CTFα vs CQ (3 μM)” value in test [2] came to 5.1.
The matching figures for `CN(C)Cc1ccccc1-c1ccc(NCCCN2CCCCC2)c(OCCCN2CCCCC2)c1` [Compound 32, 2′-((Dimethylamino)methyl)-3-(3-(piperidin-1-yl)propoxy)-N-(3-(piperidin-1-yl)propyl)-[1,1′-biphenyl]-4-amine]: 2000 ± 100 nM, 2100 ± 300 nM, 5.1 and 4.5.
Take `CN(C)Cc1ccccc1-c1ccc(NCCN2CCCCC2)c(OCCN2CCCCC2)c1` [Compound 33, 2′-((Dimethylamino)methyl)-3-(2-(piperidin-1-yl)ethoxy)-N-(2-(piperidin-1-yl)ethyl)-[1,1′-biphenyl]-4-amine]: the half-maximal inhibitory concentration (IC50) came out at 1200 ± 600 nM in test [3] and 1400 ± 500 nM in test [4]. In addition, in test [1], the “AICD vs CQ (3 μM)” value turned out to be 4.8. The “CTFα vs CQ (3 μM)” value in test [2] came to 5.0.
The matching figures for `CN(C)Cc1ccccc1-c1ccc(NCCN2CCCCC2)c(OCCCN2CCCCC2)c1` [Compound 34, 2′-((Dimethylamino)methyl)-N-(2-(piperidin-1-yl)ethyl)-3-(3-(piperidin-1-yl)propoxy)-[1,1′-biphenyl]-4-amine]: 1800 ± 700 nM, 2000 ± 200 nM, 3.4 and 4.5.
Take `CN(C)Cc1ccccc1-c1ccc(NCCN2CCCCC2)c(OCCCCN2CCCCC2)c1` [Compound 35, 2′-((Dimethylamino)methyl)-3-(4-(piperidin-1-yl)butoxy)-N-(2-(piperidin-1-yl)ethyl)-[1,1′-biphenyl]-4-amine]: the IC50 in test [3] came to 1600 ± 300 nM; in test [4], 1600 ± 100 nM. Also, the “AICD vs CQ (3 μM)” value in test [1] turned out to be 4.8. In addition, the “CTFα vs CQ (3 μM)” value in test [2] is 4.4.
Take `CN1CCN(Cc2ccn(-c3ccc(NCCCN4CCCCC4)c(OCCN4CCCCC4)c3)c2)CC1` [Compound 54, 4-(3-[(4-Methylpiperazin-1-yl)methyl]-1H-pyrrol-1-yl)-2-[2-(piperidin-1-yl)ethoxy]-N-[3(piperidin-1-yl)propyl]aniline]: the half-maximal inhibitory concentration (IC50) in test [3] is 12100 ± 7800 nM; in test [4], 8300 ± 4000 nM.
